From patent US20240315937A1, “STABLE EFFICIENT COSMETIC PREPARATIONS” (YISSUM RESEARCH DEVELOPMENT COMPANY OF THE HEBREW …, priority 2021, published 2024)

Tests used:
[1] = Dissolution of CBD in oil solvents of the creams; assay type: physicochemical; conditions: CBD 2%; medium-chain triglycerides (MCT) and sesame oil
Method: The main tested parameters included the following: • 1. Reduction of ethanol: Ethanol is generally considered a co-solvent of CBD. The concentration of ethanol was reduced from initial to final preparations, starting from 3.6% and 0.9% to no ethanol in the final preparations, where CBD was dissolved directly in sesame oil (see for example CBD #34 in Table 13 below). • 2. Selection of an antioxidant: The selected antioxidants were BHT and propyl gallate, in various combinations and proportions. […] Due to this property, the final preparations contained 0.05% BHT (see Table 13, CBD #34). • 3. Selection of an oil: Oil is a known solvent for CBD. Various oils were tested as optional solvents in the cosmetic creams of the invention. […] Both MCT and sesame oil have antioxidants properties (see Table 13, CBD #34).

[2] = Force degradation of 2% CBD cream (CBD assay by HPLC); assay type: physicochemical; conditions: vs untreated reference
Method: Samples were prepared by the following method: • 1. 200 mg 2% CBD cream vs. Blank (7 mL vials), • 2. Subjected to Oxidation/Base/Acid/Heat/UV conditions (see below), • 3. Mixing with 4 mL DMSO, • 4. Sonication, 30 min, • 5. Shaking, 1 h, • 6. Centrifugation at 4000 rpm, 5 min, • 7. Filtration by 0.22 μm PTFE, • 8. HPLC sample preparation and HPLC protocol as above.
Samples were subjected to the following force degradation conditions and tested for CBD content: • Heat: 200 mg cream was heated at 100° C. (oil bath) for 6 h; • UV: 200 mg cream was exposed to the sun for 3 h; • Acidic conditions: 200 mg cream was treated with 150 μl 9M HCl (aq.) for 1 h and neutralized with 150 μl 9M NaOH; • Basic conditions: […] μl 1M HCl; • Oxidation: 200 mg of cream was treated with 1 ml 30% H2O2 for 2 h; CBD assay % was calculated according to the untreated reference.

With C=C(C)[C@@H]1CCC(C)=C[C@H]1c1c(O)cc(CCCCC)cc1O [CBD, cannabidiol] the “dissolution of CBD in oil solvent” value [1] was “complete dissolution”, the CBD assay ([2]; Acid: 200 mg 2% CBD cream, 150 μl 9M HCl, 1 h) was 67.7% and the CBD assay ([2]; Base: 200 mg 2% CBD cream, 200 μl 1M NaOH, time point 1 h) was 81.9%. It also gave a CBD assay ([2]; Heat: 200 mg 2% CBD cream at 100° C. (oil bath), 6 h) of 87.8%, a CBD assay ([2]; Oxidation: 200 mg 2% CBD cream, 1 ml 30% H2O2, 2 h) of 63.5% and a CBD assay ([2]; UV: 200 mg 2% CBD cream exposed to the sun, 3 h) of 98.4%.
